Measurements from patent US12503452B2 (Curza Global, LLC, priority 2019, dated 2025).
Counter-ions that a name gives are not always drawn. Like-named read-outs stand apart in the source and are kept apart here.

Assays:
[1] = tested on: E. coli S30 extract (bacterial protein synthesis); assay: E. coli S30 extract coupled transcription-translation luciferase assay (inhibition of bacterial protein synthesis); assay type: biochemical; conditions: read-out: S30 IC50 (μM/% inhib.)
Protocol: E. coli S30 extract: Inhibition of bacterial protein synthesis was determined using the E. coli S30 Extract System for Circular DNA (Promega catalog #L-2010) and Luciferase Assay Reagent (Promega catalog #E1500) with slight modifications to a published protocol. Fyfe, C., Sutcliffe, J. A. and Grossman, T. H. (2012) “Development and characterization of a Pseudomonas aeruginosa in vitro coupled transcription-translation assay system for evaluation of translation inhibitors” J. Microbiol. Methods 90(3), 256-261.
Compounds were serial diluted in 0.5 mL microcentrifuge tubes by mixing and transferring 50 μL from the highest concentration to 50 μL of water, mixing and transferring 50 μL of this 2-fold dilution to 50 μL of water. This mixing and transferring was repeated so that there are a total of 8 tubes with serial dilutions of compound at 10× the desired screening concentration that are ultimately diluted to 1× by the addition of S30 luciferase synthesis mixture. Serial dilutions of compounds were added (2 μL) to wells in a black round bottom 96-well plate. Water (2 μL) was used as a “no inhibitor” control in 4 wells/plate. No DNA control reaction mixture (20 μL; see below) was used as a control in 4 wells/plate for background luminescence. S30 luciferase synthesis mixture (18 μL; see below) was added to wells with compounds or water mixture and incubated at 37° C. for 1 hour. Reactions were stopped by transferring to 4° C. refrigerator for 5 minutes then 25 μL of luciferase activity mix was added. Luminescence was measured using a BioTek Synergy HTX plate reader. % Inhibition was determined relative to no inhibitor controls.
S30 luciferase synthesis mixture:
• 445 μL S30 extract, circular • 712 μL S30 Premix without amino acids • 4.45 μL pBESTluc™ DNA (1 μg/μL) • 78 μL complete amino acid mixture • 267 μL water No DNA control: • 20 μL S30 extract, circular • 32 μL S30 Premix without amino acids • 7 μL complete amino acid mixture • 21 μL water Rabbit Reticulocyte lysate

E. coli (Ec) = assay: Broth microdilution minimum inhibitory concentration (MIC); assay type: cell-based; conditions: Escherichia coli, read-out: E. coli + bicarb MIC
Protocol: A certified BSL-2 laboratory was used for testing. Compounds were evaluated using the broth microdilution minimum inhibitory concentration (MIC) and minimum bactericidal concentration (MBC) assays defined by Clinical and Laboratory Standards Institute (CLSI) in the M26-A guideline against S. aureus (Sa), E. coli (Ec), K. pneumoniae (Kp), A. baumannii (Ab), E. faecalis (Ef) and P. aeruginosa (Pa).
MICs were determined using the Clinical Laboratory and Standards Institute (CLSI) Broth Microdilution Method with slight modification. Clinical and Laboratory Standards Institute (2012). “Methods for dilution antimicrobial susceptibility tests for bacteria that grow aerobically; approved standard, 9th ed. M07-A9. Clinical and Laboratory Standards Institute, Wayne, PA” Serial two-fold dilutions of compounds are prepared in sterile clear round-bottom 96-well plates.
To prepare microdilution trays, two-fold dilutions of antimicrobial agent are prepared in growth medium: Cation-Adjusted Mueller-Hinton Broth (CAMHB), or CAMHB supplemented with sodium bicarbonate (6.25 or 25 mM final concentration prepared from a 1.0M stock solution) or CAMHB supplemented with heat inactivated human serum (Fisher Cat. #BP2657100) 0-50% by adding 200 μL of the highest concentration to be tested (64 μg/mL, for example) in row A, mixing and transferring 100 μL from row A to 100 μL growth medium in row B, then repeating the mixing and transferring through row H of the 96-well plate, discarding the excess 100 μL remaining. This slight modification to the CLSI protocol enables evaluation of MICs for 3 compounds per plate in triplicate, albeit with only 8 compound dilutions (CLSI protocol enables 2 compounds in triplicate with 10 dilutions). Bacterial suspensions are added to a final concentration of 5×10^4 CFU/well by adding 5 μL of a 1:10 dilution of a 0.5 McFarland suspension (1×10^8 CFU/mL) for each bacterium evaluated. Bacterial suspensions were prepared using the growth method described by CLSI. Well-isolated colonies (3-5 from an agar plate) were selected using a sterile loop and used to inoculate a tube containing 4 mL of CAMHB. The cultures are incubated at 35±2° C. until it achieves or exceeds the turbidity of the 0.5 McFarland standard, determined by measuring A600nm (usually two to six hours). When growth exceeds a 0.5 McFarland standard, the turbidity is adjusted with broth to be equivalent to a 0.5 McFarland standard.

[2] = molecular target: Rabbit Reticulocyte Lysate (eukaryotic protein synthesis); assay: Rabbit reticulocyte lysate luciferase assay (inhibition of eukaryotic protein synthesis); assay type: biochemical; conditions: read-out: Rabbit reticulocyte IC50 (μM/% inhib.)
Protocol: Inhibition of eukaryotic protein synthesis was determined using the Rabbit Reticulocyte Lysate System, Nuclease-Treated from Promega (catalog #L-4960) with slight modifications to the manufacturer's protocol. Compounds were serial diluted in 0.5 mL microcentrifuge tubes by mixing and transferring 50 μL from the highest concentration to 50 μL of water, mixing and transferring 50 μL of this 2-fold dilution to 50 μL of water. This mixing and transferring was repeated so that there are a total of 8 tubes with serial dilutions of compound at 10× the desired screening concentration that are ultimately diluted to 1× by the addition of rabbit reticulocyte luciferase synthesis mixture. Serial dilutions of compounds were added ([…]) to wells in a black round bottom 96-well plate. Water (2.5 μL) was used as a “no inhibitor” control in 4 wells/plate. No RNA control reaction mixture ([…]; see below) was used as a control in 4 wells/plate for background luminescence. Rabbit reticulocyte luciferase synthesis mixture (22.5 μL; see below) was added to wells with compounds or water mixture and incubated at 30° C. for 90 minutes. Luciferase assay reagent (25 μL) was added with luminescence measured using a BioTek Synergy HTX plate reader. % Inhibition was determined relative to no inhibitor controls.
Rabbit reticulocyte luciferase synthesis mixture:
• 1,000 μL rabbit reticulocyte lysate • 5.7 μL Luciferase Control RNA (1 μg/μL) • 26 μL complete amino acid mixture • 395 μL water No RNA Control • 70 μL rabbit reticulocyte lysate • 2 μL complete amino acid mixture • 28 μL water Minimum Inhibitory Concentration (MIC)

[3] = class by IC50 or % inhibition @ 1 μM
[4] = E. coli, growth medium with sodium bicarbonate
[5] = E. coli, growth medium supplemented with sodium bicarbonate

SMILES	IC50 [1, 3] [µM]	MIC (E. coli (Ec); [4]) [µg/mL]	IC50 [2, 3] [µM]	other results
CO[C@@H]1CN(Cc2ccc(-n3ccc(NC(=O)N4CCN(C(=O)C(C)(C)N)CC4)nc3=O)cc2)CC[C@H]1N [Compound 216]	> 1	8 to 32	–	–
CC1(N)CCCN(Cc2ccc(-n3ccc(NC(=O)N4CCN(C(=O)C(C)(C)N)CC4)nc3=O)cc2)CC1.Cl (stereo not drawn) [Compound 255]	< 0.5	< 8	> 1	–
CC(C)(N)C(=O)N1CCN(C(=O)Nc2ccn(-c3ccc(CN4CCC(O)(CN)CC4)cc3)c(=O)n2)CC1 [Compound 215]	< 0.5	< 8	–	–
CC(C)(N)C(=O)N1CCN(C(=O)Nc2ccn(-c3ccc(CN4CCC[C@H](N)C4)cc3)c(=O)n2)CC1 [Compound 237]	0.5 to 1	< 8	> 1	–
CC(C)(N)C(=O)N1CCN(C(=O)Nc2ccn(-c3ccc(CN4CC[C@@H](N)[C@H](F)C4)cc3)c(=O)n2)CC1 [Compound 208]	> 1	8 to 32	–	–
CC(C)(N)C(=O)N1CCN(C(=O)Nc2ccn(-c3ccc(C(C(=O)O)N4CCC(N)CC4)cc3)c(=O)n2)CC1 (stereo not drawn) [Compound 93]	> 1	–	–	MIC (E. coli (Ec); [5]): > 32 µg/mL
C[C@H](N)C1CCN(Cc2ccc(-n3ccc(NC(=O)N4CCN(C(=O)[C@@](C)(N)CO)CC4)nc3=O)cc2)CC1 [Compound 221]	< 0.5	< 8	> 1	–
CC(C)(N)C(=O)N1CCN(C(=O)Nc2ccn(-c3ccc(CN4CC(N)C4)cc3)c(=O)n2)CC1 [Compound 244]	> 1	< 8	> 1	–
CC(C)(N)C(=O)N1CCN(C(=O)Nc2ccn(-c3ccc(CN4CC[C@H](N)C4)cc3)c(=O)n2)CC1 [Compound 241]	< 0.5	8 to 32	> 1	–
CC1(N)CN(Cc2ccc(-n3ccc(NC(=O)N4CCN(C(=O)C(C)(C)N)CC4)nc3=O)cc2)C1 [Compound 238]	> 1	< 8	> 1	–
CCOC(=O)C(c1ccc(-n2ccc(NC(=O)N3CCN(C(=O)C(C)(C)N)CC3)nc2=O)cc1)N1CCC(N)CC1 (stereo not drawn) [Compound 92]	> 1	–	–	MIC (E. coli (Ec); [5]): > 32 µg/mL
Cc1cn(-c2ccc(CN3CCC(N)CC3)cc2)c(=O)nc1NC(=O)N1CCN(C(=O)C(C)(C)N)CC1 [Compound 234]	> 1	> 32	> 1	–
CC(C)(N)C(=O)N1CCN(C(=O)Nc2ccn(-c3ccc(CN4CC[C@@H](N)C(O)C4)cc3)c(=O)n2)CC1 (stereo partly drawn) [Compound 267]	< 0.5	< 8	> 1	–
CC1CC(N)CCN1Cc1ccc(-n2ccc(NC(=O)N3CCN(C(=O)C(C)(C)N)CC3)nc2=O)cc1 (stereo not drawn) [Compound 252]	< 0.5	< 8	> 1	–
C[C@](N)(CO)C(=O)N1CCN(C(=O)Nc2ccn(-c3ccc(CCN4CCCC(N)CC4)cc3)c(=O)n2)CC1 (stereo partly drawn) [Compound 381]	–	< 8	–	IC50 ([1]; % inhibition @ 1 μM): < 0.5 µM; IC50 ([2]; % inhibition @ 1 μM): > 1 µM
CC(C)(N)C(=O)N1CCN(C(=O)Nc2ccn(-c3ccc(CN4CC[C@@H](N)C4)cc3)c(=O)n2)CC1 [Compound 239]	< 0.5	< 8	> 1	–
CC(C)(N)C(=O)N1CCN(C(=O)Nc2ccn(-c3ccc(CN4CCC[C@@H](N)C4)cc3)c(=O)n2)CC1 [Compound 236]	> 1	< 8	> 1	–
CN(C)C1CCN(Cc2ccc(-n3ccc(NC(=O)N4CCN(C(=O)C(C)(C)N)CC4)nc3=O)cc2)CC1 [Compound 214]	< 0.5	< 8	–	–
CC(C)(N)C(=O)N1CCN(C(=O)Nc2ccn(-c3ccc(CN4CCC(F)(CN)CC4)cc3)c(=O)n2)CC1 [Compound 248]	< 0.5	< 8	> 1	–
C[C@](N)(CO)C(=O)N1CCN(C(=O)Nc2ccn(-c3ccc(CN4CCC(N)CC4)cc3)c(=O)n2)CC1 [Compound 97]	< 0.5	–	> 1	MIC (E. coli (Ec); [5]): 8 to 32 µg/mL
CC1(N)CCCN(Cc2ccc(-n3ccc(NC(=O)N4CCN(C(=O)C(C)(C)N)CC4)nc3=O)cc2)C1 (stereo not drawn) [Compound 246]	> 1	< 8	> 1	–
CNC1CCN(Cc2ccc(-n3ccc(NC(=O)N4CCN(C(=O)C(C)(C)N)CC4)nc3=O)cc2)CC1 [Compound 250]	< 0.5	< 8	> 1	–
CC(C)(N)CN1CCN(Cc2ccc(-n3ccc(NC(=O)N4CCN(C(=O)C(C)(C)N)CC4)nc3=O)cc2)CC1 [Compound 226]	< 0.5	< 8	> 1	–
CC(C)(N)C(=O)N1CCN(C(=O)Nc2ccn(-c3ccc(CN4CCC(CCN)CC4)cc3)c(=O)n2)CC1 [Compound 218]	< 0.5	< 8	> 1	–
CC(Cc1ccc(-n2ccc(NC(=O)N3CCN(C(=O)C(C)(C)N)CC3)nc2=O)cc1)NCC1CNC1 (stereo not drawn) [Compound 346, hydrochloride salt]	–	–	> 1	IC50 ([1]; class by IC50 or % inhibition @ 1 μM, hydrochloride salt): 0.5 to 1 µM; MIC (E. coli (Ec)): > 32 µg/mL
CC(C)(N)N1CCN(C(=O)Nc2ccn(-c3ccc(CN4CCC(N)CC4)cc3)c(=O)n2)CC1 [Compound 230]	> 1	8 to 32	> 1	–
CC(C)(N)C(=O)N1CCN(C(=O)Nc2ccn(-c3ccc(CN4CCCCC(N)C4)cc3)c(=O)n2)CC1 (stereo not drawn) [Compound 240]	0.5 to 1	> 32	> 1	–
CC(C)(N)C(=O)N1CCN(C(=O)Nc2ccn(-c3ccc(CN4CCC(C(C)(C)N)CC4)cc3)c(=O)n2)CC1 [Compound 253]	< 0.5	< 8	> 1	–
C[C@@H](N)C1CCN(Cc2ccc(-n3ccc(NC(=O)N4CCN(C(=O)[C@@](C)(N)CO)CC4)nc3=O)cc2)CC1 [Compound 222]	< 0.5	< 8	> 1	–
